{"source": "paper PMC5862788", "about": "(Antiviral therapy, 2018)", "origin": "cited, not measured here", "tested_on": "HCV", "note": "Where two headings read alike, the source gives them in different places."}
{"smiles": "COC(=O)N[C@H](C(=O)N1CCC[C@H]1c1nc(-c2ccc(-c3ccc(-c4c[nH]c([C@@H]5CCCN5C(=O)[C@@H](NC(=O)OC)C(C)C)n4)cc3)cc2)c[nH]1)C(C)C", "note": "[daclatasvir]", "values": [{"measurement": "predicted effectiveness ε", "setting": "200 mg tid", "result": 0.996}]}
{"smiles": "CC(C)(C)OC(=O)N[C@H]1CCCCC/C=C\\[C@@H]2C[C@@]2(C(=O)NS(=O)(=O)C2CC2)NC(=O)[C@@H]2C[C@@H](OC(=O)N3Cc4cccc(F)c4C3)CN2C1=O", "note": "[danoprevir]", "values": [{"measurement": "predicted effectiveness ε", "setting": "100 mg bid", "result": 0.976}, {"measurement": "predicted effectiveness ε", "setting": "monotherapy, 200 mg tid and 300 mg bid", "result": 0.992}]}
{"smiles": "CC(C)C(=O)OC[C@H]1O[C@@H](n2ccc(N)nc2=O)[C@](C)(F)[C@@H]1OC(=O)C(C)C", "note": "[mericitabine]", "values": [{"measurement": "predicted effectiveness ε", "setting": "1500 mg bid", "result": 0.997}]}
